Results published in article PMC11124336 (Molecules, 2024).

Assays:
[1] = target: T1, Type II NADH dehydrogenase (NDH-2, NdhC) (Staphylococcus aureus, UniProt Q2FZV7); test: activity of FAD-depleted purified enzyme restored by added FAD; type: biochemical
T1 construct: gene SAOUHSC_00878; N-terminal 6His-tagged NDH-2 (ndhC gene from S. aureus 25923)
T1 sequence (Q2FZV7 1-402): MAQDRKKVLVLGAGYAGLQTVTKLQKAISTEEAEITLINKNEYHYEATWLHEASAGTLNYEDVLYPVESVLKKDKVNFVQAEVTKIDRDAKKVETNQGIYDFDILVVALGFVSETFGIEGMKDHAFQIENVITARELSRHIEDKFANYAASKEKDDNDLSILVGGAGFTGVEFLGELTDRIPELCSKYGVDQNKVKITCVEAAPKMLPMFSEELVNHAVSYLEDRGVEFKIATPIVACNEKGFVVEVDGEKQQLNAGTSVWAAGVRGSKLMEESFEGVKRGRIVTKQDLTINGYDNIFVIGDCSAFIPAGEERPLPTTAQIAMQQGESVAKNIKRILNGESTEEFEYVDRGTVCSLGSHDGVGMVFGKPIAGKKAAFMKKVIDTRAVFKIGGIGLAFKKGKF

[2] = target: T1, Type II NADH dehydrogenase (NDH-2, NdhC); test: NADH oxidation assay at […] nm with menadione; type: biochemical
[3] = substrate: CC1=CC(=O)c2ccccc2C1=O; test: steady-state kinetics of purified enzyme (Km); type: biochemical, Staphylococcus aureus; conditions: FAD
[4] = substrate: NC(=O)C1=CN([C@@H]2O[C@H](COP(=O)(O)OP(=O)(O)OC[C@H]3O[C@@H](n4cnc5c(N)ncnc54)[C@H](O)[C@@H]3O)[C@@H](O)[C@H]2O)C=CC1; test: steady-state kinetics of purified enzyme (Km); type: biochemical, Staphylococcus aureus; conditions: FAD

Molecule: Cc1cc2nc3c(=O)[nH]c(=O)nc-3n(C[C@H](O)[C@H](O)[C@H](O)COP(=O)(O)OP(=O)(O)OC[C@H]3O[C@@H](n4cnc5c(N)ncnc54)[C@H](O)[C@@H]3O)c2cc1C [FAD]
- activity of FAD-depleted purified enzyme restored by added FAD [1]: the addition of exogenous FAD to the reaction mix restored the NADH dehydrogenase activity of the recombinant protein

Molecule: CCCCCCCc1cc(O)c2ccccc2[n+]1[O-] [HQNO, 2-heptyl-4-hydroxyquinoline-N-oxide]
- IC50 [2]: 9 µM

B1: Type II NADH dehydrogenase (NDH-2, NdhC) (Staphylococcus aureus subsp. aureus NCTC 8325) (protein)
chain: T1 sequence (Q2FZV7 1-402)
notes: N-terminal 6His-tagged NDH-2 (ndhC gene from S. aureus 25923)
- Km [3]: 19.9 ± 0.7 µM
- Km [4]: 90.8 ± 16.2 µM
